Experimental data reported in US20060003016A1, “Therapeutic method for endolymphatic hydrops associated diseases” (priority 2004, published 2006).
Like-named read-outs stand apart in the source and are kept apart here.

Test system: patients with Meniere's disease and endolymphatic hydrops associated diseases
Conditions: for hearing level / hearing level, average (500-4000 Hz): case 4, right ear; for hearing level after treatment / hearing level after treatment, average (500-4000 Hz) / hearing improved as compared with before the treatment (four-frequency PTA): water intake
From the text: In the present case who could be followed up for more than 24 months after treatment with water intake, the therapeutic effect was judged by using the criteria of AAO-HNS (1995)^14), 15). Proviso that in an examination on changes of the hearing, although the criteria in the four-frequency pure-tone averages (PTA) of AAO-HNS (1995)^14) adopted mean values of the hearing levels consisting of 500 Hz, 1000 Hz, 2000 Hz and 3000 Hz, in our case, the value of 4000 Hz was used in stead of that of 3000 Hz.
In each figure, a horizontal axis indicates frequency (Hz) and a vertical axis indicates hearing level. […] A graph in the upper position indicates better hearing level.

Compound: O [water intake, water]
- hearing level (1000 Hz, Jun. 2003, water intake 1.5 lit./day from Jun. 20, 2003): 50 dB
- hearing level (1000 Hz, Nov. 2003, water intake 1.5 lit./day): 30 dB
- hearing level (1000 Hz, Oct. 2003, water intake 1.5 lit./day): 25 dB
- hearing level (1000 Hz, Sep. 2003, water intake 1.5 lit./day): 45 dB
- hearing level (2000 Hz, Aug. 2003, water intake 1.5 lit./day): 20 dB
- hearing level (2000 Hz, Dec. 2003, water intake 1.5 lit./day): 20 dB
- hearing level (2000 Hz, Jan. 2004, water intake 1.5 lit./day): 20 dB
- hearing level (2000 Hz, Jul. 2003, water intake 1.5 lit./day): 45 dB
- hearing level (2000 Hz, Jun. 2003, water intake 1.5 lit./day from Jun. 20, 2003): 25 dB
- hearing level (2000 Hz, Nov. 2003, water intake 1.5 lit./day): 20 dB
- hearing level (2000 Hz, Oct. 2003, water intake 1.5 lit./day): 20 dB
- hearing level (2000 Hz, Sep. 2003, water intake 1.5 lit./day): 40 dB
- hearing level (4000 Hz, Aug. 2003, water intake 1.5 lit./day): 30 dB
- hearing level (4000 Hz, Dec. 2003, water intake 1.5 lit./day): 30 dB
- hearing level (4000 Hz, Jan. 2004, water intake 1.5 lit./day): 25 dB
- hearing level (4000 Hz, Jul. 2003, water intake 1.5 lit./day): 60 dB
- hearing level (4000 Hz, Jun. 2003, water intake 1.5 lit./day from Jun. 20, 2003): 25 dB
- hearing level (4000 Hz, Nov. 2003, water intake 1.5 lit./day): 35 dB
- hearing level (4000 Hz, Oct. 2003, water intake 1.5 lit./day): 30 dB
- hearing level (4000 Hz, Sep. 2003, water intake 1.5 lit./day): 40 dB
- hearing level (8000 Hz, Aug. 2003, water intake 1.5 lit./day): 75 dB
- hearing level (8000 Hz, Dec. 2003, water intake 1.5 lit./day): 60 dB
- hearing level (8000 Hz, Jan. 2004, water intake 1.5 lit./day): 65 dB
- hearing level (8000 Hz, Jul. 2003, water intake 1.5 lit./day): 85 dB
- hearing level (8000 Hz, Jun. 2003, water intake 1.5 lit./day from Jun. 20, 2003): 75 dB
- hearing level (8000 Hz, Nov. 2003, water intake 1.5 lit./day): 65 dB
- hearing level (8000 Hz, Oct. 2003, water intake 1.5 lit./day): 80 dB
- hearing level (8000 Hz, Sep. 2003, water intake 1.5 lit./day): 80 dB
- hearing level, average (500-4000 Hz) (Aug. 2003, water intake 1.5 lit./day): 26.25 dB
- hearing level, average (500-4000 Hz) (Dec. 2003, water intake 1.5 lit./day): 22.5 dB
- hearing level, average (500-4000 Hz) (Jan. 2004, water intake 1.5 lit./day): 22.5 dB
- hearing level, average (500-4000 Hz) (Jul. 2003, water intake 1.5 lit./day): 50.0 dB
- hearing level, average (500-4000 Hz) (Jun. 2003, water intake 1.5 lit./day from Jun. 20, 2003): 35.0 dB
- hearing level, average (500-4000 Hz) (Nov. 2003, water intake 1.5 lit./day): 23.75 dB
- hearing level, average (500-4000 Hz) (Oct. 2003, water intake 1.5 lit./day): 25.0 dB
- hearing level, average (500-4000 Hz) (Sep. 2003, water intake 1.5 lit./day): 41.25 dB
- hearing level after treatment (case 6, right ear, 125 Hz, Apr. 11, 2002, poorest level 18-24 months after treatment): 65 dB
- hearing level after treatment (case 6, right ear, 250 Hz, Apr. 11, 2002, poorest level 18-24 months after treatment, before 85 dB): 80 dB
- hearing level after treatment (case 6, right ear, 500 Hz, Apr. 11, 2002, poorest level 18-24 months after treatment, before 85 dB): 80 dB
- hearing level after treatment (case 6, right ear, 1000 Hz, Apr. 11, 2002, poorest level 18-24 months after treatment, before 85 dB): 85 dB
- hearing level after treatment (case 6, right ear, 2000 Hz, Apr. 11, 2002, poorest level 18-24 months after treatment, before 75 dB): 75 dB
- hearing level after treatment (case 6, right ear, 4000 Hz, Apr. 11, 2002, poorest level 18-24 months after treatment, before 90 dB): 90 dB
- hearing level after treatment (case 6, right ear, 8000 Hz, Apr. 11, 2002, poorest level 18-24 months after treatment, before 95 dB): 90 dB
- hearing level after treatment, average (500-4000 Hz) (case 6, right ear, Apr. 11, 2002, poorest level 18-24 months after treatment, before 83.75 dB): 82.5 dB
- hearing improved as compared with before the treatment (four-frequency PTA) (case 6, right ear): 1.25 dB
- category of change of hearing, AAO-HNS (1995) criteria (case 6, water intake): unchanged
- hearing level after treatment (case 7, left ear, 125 Hz, Oct. 10, 2003, poorest level 18-24 months after treatment, before 35 dB): 5 dB
- hearing level after treatment (case 7, left ear, 250 Hz, Oct. 10, 2003, poorest level 18-24 months after treatment, before 40 dB): 5 dB
- hearing level after treatment (case 7, left ear, 500 Hz, Oct. 10, 2003, poorest level 18-24 months after treatment, before 30 dB): 5 dB
- hearing level after treatment (case 7, left ear, 1000 Hz, Oct. 10, 2003, poorest level 18-24 months after treatment, before 20 dB): 5 dB
- hearing level after treatment (case 7, left ear, 2000 Hz, Oct. 10, 2003, poorest level 18-24 months after treatment, before 10 dB): 5 dB
- hearing level after treatment (case 7, left ear, 4000 Hz, Oct. 10, 2003, poorest level 18-24 months after treatment, before 30 dB): 20 dB
- hearing level after treatment (case 7, left ear, 8000 Hz, Oct. 10, 2003, poorest level 18-24 months after treatment, before 40 dB): 45 dB
- hearing level after treatment, average (500-4000 Hz) (case 7, left ear, Oct. 10, 2003, poorest level 18-24 months after treatment, before 22.5 dB): 8.75 dB
- hearing improved as compared with before the treatment (four-frequency PTA) (case 7, left ear): 13.75 dB
- category of change of hearing, AAO-HNS (1995) criteria (case 7, water intake): improved
- hearing level after treatment (case 8, right ear, 125 Hz, Sep. 19, 2003, poorest level 18-24 months after treatment, before 60 dB): 40 dB
- hearing level after treatment (case 8, right ear, 250 Hz, Sep. 19, 2003, poorest level 18-24 months after treatment, before 70 dB): 40 dB
- hearing level after treatment (case 8, right ear, 500 Hz, Sep. 19, 2003, poorest level 18-24 months after treatment, before 60 dB): 35 dB
- hearing level after treatment (case 8, right ear, 1000 Hz, Sep. 19, 2003, poorest level 18-24 months after treatment, before 60 dB): 40 dB
- hearing level after treatment (case 8, right ear, 2000 Hz, Sep. 19, 2003, poorest level 18-24 months after treatment, before 50 dB): 40 dB
- hearing level after treatment (case 8, right ear, 4000 Hz, Sep. 19, 2003, poorest level 18-24 months after treatment, before 65 dB): 60 dB
- hearing level after treatment (case 8, right ear, 8000 Hz, Sep. 19, 2003, poorest level 18-24 months after treatment, before 85 dB): 80 dB
- hearing level after treatment, average (500-4000 Hz) (case 8, right ear, Sep. 19, 2003, poorest level 18-24 months after treatment, before 58.75 dB): 43.75 dB
- hearing improved as compared with before the treatment (four-frequency PTA) (case 8, right ear): 15.0 dB
- category of change of hearing, AAO-HNS (1995) criteria (case 8, water intake): improved
